Values of other authors, collected in patent US8293711B2, “Use of natriuretic peptides for treating angioedema syndromes” (Pharis Biotech GmbH, priority 2007, dated 2012).

Columns and labels:
[1] = system: HEK-293; details: human embryonic kidney cell line HEK-293; via activation of a cGMP-dependent pathway
[2] = system: acute renal failure models
[3] = system: bradykinin-induced edema in the hamster cheek pouch; details: unspecific tyrosine kinase inhibitors

Row | Molecule | tyrosine phosphorylation [1] | diuretic and natriuretic effects [2] | bradykinin-mediated effect (edema) [3]
1 | urodilatin | able to counteract tyrosine phosphorylation | strong diuretic and natriuretic effects | –
2 | O=c1c(-c2ccc(O)cc2)coc2cc(O)cc(O)c12 [genistein] | – | – | attenuated
3 | N#CC(C#N)=Cc1cc(O)c(O)c(O)c1 [tyrphostin 25] | – | – | attenuated
4 | CC[C@H](C)[C@@H]1NC(=O)[C@H](CCCNC(=N)N)NC(=O)[C@H](CC(=O)O)NC(=O)[C@H](CCSC)NC(=O)[C@H](CCCNC(=N)N)NC(=O)CNC(=O)CNC(=O)[C@H](Cc2ccccc2)NC(=O)[C@@H](NC(=O)[C@H](CO)NC(=O)[C@H](CO)NC(=O)[C@H](CCCNC(=N)N)NC(=O)[C@H](CCCNC(=N)N)NC(=O)[C@H](CC(C)C)NC(=O)[C@@H](N)CO)CSSC[C@@H](C(=O)N[C@@H](CC(N)=O)C(=O)N[C@@H](CO)C(=O)N[C@@H](Cc2ccccc2)C(=O)N[C@@H](CCCNC(=N)N)C(=O)N[C@@H](Cc2ccc(O)cc2)C(=O)O)NC(=O)CNC(=O)[C@H](CC(C)C)NC(=O)CNC(=O)[C@H](CO)NC(=O)[C@H](CCC(N)=O)NC(=O)[C@H](C)NC(=O)CNC1=O [ANP, atrial natriuretic peptide] | able to counteract tyrosine phosphorylation | – | –
